# Results taken from patent US12187722B2, “Small molecule inhibitors of TEAD transcription factors” (The General Hospital Corporation, priority 2019, dated 2025).
# Values joined by “and” are separate entries in the source; they are usually repeats but may differ in a detail not shown here. Identical values can stand only once.
# Biological target: TEAD2 (Homo sapiens (Human), UniProt Q15562)
# Assay: In vitro palmitoylation (TEAD2 autopalmitoylation, streptavidin blot)
# Type: biochemical
# Conditions: compound at 10 μM
# How it was run: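 Autopalmitoylation read by streptavidin-HRP Western blot after CuSO4/TBTA/TCEP click with 100 μM biotin-azide, 1 h RT, with His-HRP probed separately. Before that, TEAD2 protein (GST or His6, 500 ng) given compound for 15 min then 1 μM alkyne palmitoyl-CoA for 30 min; percent inhibition versus DMSO-treated samples.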
# TEAD2, sequence (Q15562 whole entry): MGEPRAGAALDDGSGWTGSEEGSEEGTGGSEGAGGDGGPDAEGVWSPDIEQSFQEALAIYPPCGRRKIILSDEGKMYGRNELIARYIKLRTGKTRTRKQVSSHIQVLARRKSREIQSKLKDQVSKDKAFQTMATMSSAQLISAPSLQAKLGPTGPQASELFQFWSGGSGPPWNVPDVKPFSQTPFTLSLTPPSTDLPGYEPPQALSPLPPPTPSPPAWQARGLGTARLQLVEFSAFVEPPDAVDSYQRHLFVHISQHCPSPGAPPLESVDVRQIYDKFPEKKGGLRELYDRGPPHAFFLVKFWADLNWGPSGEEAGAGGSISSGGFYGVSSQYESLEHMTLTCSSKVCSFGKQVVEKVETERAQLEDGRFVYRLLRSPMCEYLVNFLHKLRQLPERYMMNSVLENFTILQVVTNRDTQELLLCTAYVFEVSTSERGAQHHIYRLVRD
row,SMILES,inhibition at 10 µM [%]
1,CC(C)(C)OC(=O)c1ccc(Nc2ccc(Nc3ccccc3C(=O)O)cc2)cc1,100
2,CC(C)c1ccccc1-c1ccc(NC(=O)CC2CN(C(=O)OC(C)(C)C)C2)cc1,100
3,O=C(OCC(O)CO)c1ccccc1Nc1ccc(Nc2ccc(C34CC5CC(CC(C5)C3)C4)cc2)cc1 (stereo not shown),80

# Same assay, conditions: compound at 10 μM; Table 2
SMILES,inhibition at 10 µM [%],% of inhibition of TEAD2 palmitoylation at 10 μM
CCCCN(CCCC)c1ccc(NC(=O)c2ccc(Nc3ccccc3C(=O)O)cc2)cc1 [Compound 170],62,–
CC(C)c1ccccc1-c1ccc(NC(=O)C2CN(CC(=O)O)C2)cc1 [Compound 87],4,–
O=C(Nc1ncccc1C(=O)O)c1ccc(Nc2ccc(C34CC5CC(CC(C5)C3)C4)cc2)cc1 [Compound 217],55,–
O=C(O)C1CCNCC1Nc1ccc(Nc2ccc(C34CC5CC(CC(C5)C3)C4)cc2Cl)cc1 (stereo not shown) [Compound 88],12,–
O=C(O)c1ccccc1Nc1cc(F)cc(Nc2ccc(C34CC5CC(CC(C5)C3)C4)cc2)c1 [Compound 30],91,–
CN(c1ccc(Oc2ccc(C34CC5CC(CC(C5)C3)C4)cc2)cc1)c1ncccc1C(=O)O [Compound 196],100,–
Clc1cc(C23CC4CC(CC(C4)C2)C3)ccc1Nc1ccc(Nc2ccccn2)cc1 [Compound 10],0,–
O=C(O)c1ccccc1Nc1ccc(Nc2ccc(-c3ccccc3C(F)(F)F)cc2Cl)cc1 [Compound 53],5,–
O=C(O)c1ccc(Nc2ccc(Nc3ccc(C45CC6CC(CC(C6)C4)C5)cc3)cc2)cc1 [Compound 81],78,–
CC(C)c1ccccc1-c1ccc(Nc2ccc(Nc3ccccc3C(=O)O)cc2)c(Cl)c1 [Compound 41],52,–
O=C(O)c1cccnc1Nc1cccc(Nc2ccc(C34CC5CC(CC(C5)C3)C4)cc2Cl)c1 [Compound 114],98,–
O=C(O)Cn1ncc2cc(Nc3ccc(C45CC6CC(CC(C6)C4)C5)cc3Cl)ccc21 [Compound 101],62,–
CN(c1ccc(Oc2ccc(C34CC5CC(CC(C5)C3)C4)cc2)cc1)c1ccccc1C(=O)O [Compound 155],99,–
COC(=O)c1ccccc1Nc1ccc(C(=O)Nc2ccc(C34CC5CC(CC(C5)C3)C4)cc2)cc1 [Compound 4],0,–
O=C(Nc1ccccc1C(=O)O)c1ccc(Nc2ccc(C34CC5CC(CC(C5)C3)C4)cc2)cc1 [Compound 197],100,–
COc1ccc(Nc2ccc(N(C)c3ccc(C(F)(F)F)cc3)cc2)c(C(N)=O)c1 [compound 429],47,–
CN(c1ccc(N2CC(Oc3ccc(C45CC6CC(CC(C6)C4)C5)cc3)C2)cc1)c1ccccc1C(=O)O [Compound 200],32,–
O=C(O)c1cncn1Cc1cccc(Nc2ccc(C34CC5CC(CC(C5)C3)C4)cc2Cl)c1 [Compound 128],92,–
CC12CC3CC(C)(C1)CC(c1ccc(Nc4ccc(Nc5cccc(C(=O)O)n5)cc4)cc1)(C3)C2 [Compound 201],43,–
O=C(O)Cn1cc2cc(Nc3ccc(C45CC6CC(CC(C6)C4)C5)cc3Cl)ccc2n1 [Compound 110],85,–
Cn1c(-c2ccc(Nc3ccc(C45CC6CC(CC(C6)C4)C5)cc3)cc2)nc2cccc(C(=O)O)c21 [Compound 173],51,–
O=C(O)[C@@H]1CCCN1C(=O)Nc1ccc(C23CC4CC(CC(C4)C2)C3)cc1 [Compound 38],7,–
CN(C(=O)c1ccc(N(C)c2ccccc2C(=O)O)cc1)c1ccc(C23CC4CC(CC(C4)C2)C3)cc1 [Compound 149],40,–
CC(C)N(c1ccc(N(C)c2ccc(C34CC5CC(CC(C5)C3)C4)cc2)cc1)c1ccccc1C(=O)O [Compound 226],17,–
O=C(NCc1ccc(C23CC4CC(CC(C4)C2)C3)cc1)c1cccc(Nc2ccccc2C(=O)O)c1 [Compound 268],10,–

SMILES,inhibition at 10 µM [%],% of inhibition of TEAD2 palmitoylation at 10 μM
O=C(O)c1ccccc1Nc1ccc(Nc2ccc(C34CC5CC(CC(C5)C3)C4)cc2)nc1 [Compound 34],14,–
O=C(Nc1ccc(Nc2cccc(C(=O)O)n2)cc1)Nc1ccc(C23CC4CC(CC(C4)C2)C3)cc1 [Compound 182],54,–
NC(=O)c1ccccc1Nc1ccc(Nc2ccc(C34CC5CC(CC(C5)C3)C4)cc2Cl)cc1 [compound 272],77,–
CCCCN(c1ccccc1)c1ccc(NC(=O)c2ccc(Nc3ccccc3C(=O)O)cc2)cc1 [Compound 195],0,–
O=C(O)C1CNCC1Nc1ccc(Nc2ccc(C34CC5CC(CC(C5)C3)C4)cc2Cl)cc1 (stereo not shown) [Compound 93],72,–
O=C(O)C1CCCC1Nc1ccc(Nc2ccc(C34CC5CC(CC(C5)C3)C4)cc2Cl)cc1 (stereo not shown) [Compound 39],59,–
CCCCN(CCCC)C(=O)c1ccc(Nc2ccc(Nc3ncccc3C(=O)O)cc2)cc1 [Compound 256],46,–
CC12CC3CC(C)(C1)CC(c1ccc(NC(=O)c4cccc(Nc5ncccc5C(=O)O)c4)c(Cl)c1)(C3)C2 [Compound 262],85,–
COC(=O)c1ccccc1Nc1ccc(Nc2ccc(C34CC5CC(CC(C5)C3)C4)cc2)cc1 [Compound 2],0,–
CN(c1ccc(C(=O)Nc2ccc(C34CC5CC(CC(C5)C3)C4)cc2)cc1)c1ncccc1C(=O)O [Compound 147],70,–
COc1ccccc1-c1ccc(Nc2ccc(Nc3ccccc3C(=O)O)cc2)c(Cl)c1 [Compound 56],0,–
O=C(O)c1ccccc1Nc1ccc(Oc2ccc(C34CC5CC(CC(C5)C3)C4)cc2Cl)cc1 [Compound 166],98,–
CN(c1ccc(Nc2ccc(C34CC5CC(CC(C5)C3)C4)cc2)cc1)c1ccccc1C(=O)O [Compound 165],–,85%
O=C(O)c1cccnc1Oc1ccc(Nc2ccc(C34CC5CC(CC(C5)C3)C4)cc2Cl)cc1 [Compound 136],99,–
O=C(O)c1cccnc1Nc1cn(Cc2ccc(C34CC5CC(CC(C5)C3)C4)cc2Cl)cn1 [Compound 134],0,–
O=C(O)C1CCCC1Nc1ccc(C23CC4CC(CC(C4)C2)C3)cc1 (stereo not shown) [Compound 65],74,–
O=C(O)c1cncnc1Nc1ccc(Nc2ccc(C34CC5CC(CC(C5)C3)C4)cc2Cl)cc1 [Compound 85],20,–
O=C(O)c1cccnc1CN1CCCC(Nc2ccc(C34CC5CC(CC(C5)C3)C4)cc2Cl)C1 (stereo not shown) [Compound 141],95,–
O=C(O)c1cccc(Nc2ccc(C(=O)Nc3ccc(C45CC6CC(CC(C6)C4)C5)cc3)cc2)c1 [Compound 185],–,66% and 91%
O=C(Nc1ccc(C23CC4CC(CC(C4)C2)C3)cc1Cl)c1ccc(Nc2ccccc2C(=O)O)cc1 [Compound 37],30,–
O=C(O)c1ccccc1Nc1cnc(Nc2ccc(C34CC5CC(CC(C5)C3)C4)cc2Cl)cn1 [compound 283],99,–
CC(C)(C)OC(=O)N(c1cnc(Nc2ccc(C34CC5CC(CC(C5)C3)C4)cc2Cl)cn1)c1ccccc1C(=O)O [Compound 74],31,–
CN(c1cccc(Nc2ccc(C34CC5CC(CC(C5)C3)C4)cc2Cl)c1)c1ncccc1C(=O)O [Compound 135],100,–
Cc1ccc(Nc2cc(Nc3ccc(C45CC6CC(CC(C6)C4)C5)cc3)cc(C(F)(F)F)c2)c(C(=O)O)c1 [Compound 28],10,–
O=C(O)c1cccnc1Nc1ccc(C23CC4CC(CC(C4)C2)C3)cc1Br [Compound 92],90,–

# Same assay, conditions: compound at 10 μM; Table 3
row,SMILES,inhibition at 10 µM [%]
1,COc1ccc(Nc2cnc(N(C)c3ccc(C(F)(F)F)cc3)nc2)c(C(=O)O)c1 [CP-602],5
2,COc1ccc(Nc2ccc(N(C)c3ccc(C(F)(F)F)cc3)cc2)c(C(=O)N(C)C)c1 [CP-607],37
3,Cc1cc(N(C)c2ccc(C3CCCCC3)cc2)ccc1Nc1ccc(NC2CCOCC2)cc1C(=O)O [CP-620],0
4,COc1ccc(Nc2ccc(Oc3ccc(C(F)(F)F)cc3Cl)nc2)c(C(=O)O)c1 [CP-601],46
5,O=C(Nc1ccc(C2CCCCC2)cc1Cl)c1cccc(Nc2ccccc2C(=O)O)c1 [CP-666],79
6,COc1ccc(Nc2ccc(N(C)c3ccc(S(F)(F)(F)(F)F)cc3)cc2F)c(C(=O)O)c1 [CP-573],74
7,COc1ccc(Nc2cc(Nc3ccc(C4CCCCC4)cc3)cc(C(F)(F)F)c2)nc1C(=O)O [CP-661],77
8,COc1ccc(Nc2ccc(Oc3ccc(C(F)F)cc3Cl)cc2)c(C(=O)O)c1 [CP-575],47
9,COc1ccc(Nc2ccc(N(C)c3ccc(C4CCC(C(F)(F)F)CC4)cc3)cc2)c(C(=O)O)c1 (stereo not shown) [CP-603],83
10,COc1ccc(Nc2ccc(N(C)c3nc(C(F)(F)F)cs3)cc2)c(C(=O)O)c1 [CP-588],36
11,Cc1cc(N(C)c2ccc(OCC(F)(F)F)cc2)ccc1Nc1cccc(C(=O)O)n1 [CP-646],39
12,O=C(O)c1ccccc1Nc1ccc(Oc2ccc(C(F)(F)F)cc2Cl)cc1 [CP-543],98
13,COc1ccc(Nc2cnc(Oc3ccc(C4CCCCC4)cc3Cl)cc2C)c(C(=O)O)c1 [CP-599],57
14,Cc1ccc(Nc2ccc(N(C)c3ccc(C4CCCCC4)cc3)cc2C)c(C(=O)O)c1 [CP-631],81
15,COc1ccc(Nc2ccc(N(C)c3ccc(C45CC6CC(CC(C6)C4)C5)cc3)cc2)c(CO)c1 [CP-516],20
16,COc1ccc(Nc2ccc(Oc3ccc(S(F)(F)(F)(F)F)cc3Cl)nc2)c(C(=O)O)c1 [CP-615],82
17,COc1ccc(Nc2cnc(N(C)c3ccc(C4CCCCC4)cc3)nc2)c(C(=O)O)c1 [CP-594],46
18,COc1ccc(Nc2ccc(Oc3ccc(C45CC6CC(C)(CC(C)(C6)C4)C5)cc3Cl)cc2C)c(C(=O)O)c1 [CP-564],89
19,COc1ccc(Nc2ccc(C3CC3)cc2N(C)c2ccc(C3CCCCC3)cc2)c(C(=O)O)c1 [CP-623],73
20,COc1ccc(Nc2ccc(N(C)c3ccc(N4CCOCC4)cc3)cc2)c(C(=O)O)c1 [CP-547],18
